Assay results: patent publication US12570988B2, “Aptamers that bind thiamine analogs and derivatives” (MeiraGTx Gene Regulation Limited, priority 2020, dated 2026)

Experiments:
[1] = tested on: riboswitch 15D10; test: Luciferase reporter with 15D10 riboswitch (Luci-15D10) in HEK 293 cells; format: cell-based, human; conditions: for effect on luciferase expression from Luci-15D10: HEK 293 cells, FIG. 9A, 9C
Method in brief: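 Cells transfected with riboswitch-luciferase plasmid; 4 h later medium replaced with TPP or thiamine analogs (fursultiamine, prosultiamine, bisbentiamine, beclotiamine, sulbutiamine) as inducers.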

[2] = tested on: riboswitch TPPm (E. coli thiM TPP aptamer); test: Luciferase reporter with TPPm riboswitch in HEK 293 cells; format: cell-based, human; conditions: FIG. 1
From the text: (§1) Riboswitch constructs: Aptamers were synthesized by Integrated DNA Technologies, Inc. and Golden Gate cloning strategy (New England Biolabs, NEB) was used to clone the synthesized aptamer sequences into intron-exon-intron cassette to replace the guanine aptamer in the G17 riboswitch cassette (see SEQ ID NO: 15 recited in WO 2016/126747, which is incorporated herein in its entirety) with a TPP aptamer from the Alishewanella tabrizica thiC gene (Microbiol Res. 2017 January; 195:71-80) or a TPP aptamer from the Escherichia coli thiM gene (Structure. 2006 September; 14(9):1459-68), generating riboswitch TPPz and TPPm, respectively.
(§2) Transfection: 3.5×10^4 human embryonic kidney (HEK) 293 cells were plated in a 96-well flat bottom plate the day before transfection. Plasmid DNA (500 ng) was added to a tube or a 96-well U-bottom plate. Separately, TransIT-293 reagent (Mirus; 1.4 μL) was added to 50 μL Optimem I media (Life Technologies) and allowed to sit for 5 minutes at room temperature (RT). Then, 50 μL of this diluted transfection reagent was added to the DNA, mixed, and incubated at RT for 20 min. Finally, 7 μL of this solution was added to a well of cells in the 96-well plate. Four hours after transfection, medium containing transfection solution was replaced by medium containing either TPP, fursultiamine, prosultiamine, bisbentiamine, beclotiamine hydrochloride, or sulbutiamine as aptamer inducers.
(§3) Firefly luciferase assay of cultured cells: Twenty-four hours after media change, plates were removed from the incubator, and equilibrated to RT for several minutes on a lab bench, then aspirated. Glo-lysis buffer (Promega, 100 μL, RT) was added, and the plates allowed to remain at RT for at least 5 minutes. Then, the well contents were mixed by 50 μL trituration, and 20 μL of each sample was mixed with 20 μL of bright-glo reagent (Promega) that had been diluted to 10% in glo-lysis buffer. 96 wells were spaced on an opaque white 384-well plate. Following a 5 min incubation at RT, luminescence was measured using a Tecan machine with 500 ms read time. The luciferase activity was expressed as mean arbitrary light units (ALU)±S.D., and fold induction was calculated as the quotient of the luciferase activity obtained from cells with TPP or analog treatment divided by the luciferase activity obtained from cells without TPP or analog treatment.

[3] = tested on: 14G4 riboswitch; conditions: HEK 293 cells; dose dependent; FIG. 2
From the text: Riboswitch construction: TPP aptamer homologous sequences were obtained from Rfam 12.0 (https://rfam.xfam.org/) and synthesized (Twister Biotech).
To identify aptamers with increased gene regulation activity in response to thiamine analogs as compared to TPPz and TPPm, a putative TPP aptamer with homologous sequence was obtained from Rfam 12.0 (RNA family database RF00059, http://rfam.xfam.org/family/RF00059).

[4] = tested on: riboswitch TPPz (A. tabrizica thiC TPP aptamer); test: Luciferase reporter with TPPz riboswitch in HEK 293 cells; format: cell-based, human; conditions: FIG. 1
From the text: as §1, §2, §3

[5] = tested on: riboswitch comprising aptamer 3H4; conditions: 12.5 μM; AML12 cells; versus absence of fursultiamine
From the text: (§4) Riboswitch constructs: Alternative splicing riboswitches containing aptamers 3H4 or 15D10, respectively, were inserted at position 308 into the mouse erythropoietin cDNA sequence in construct Con8-Epo (SEQ ID NO:85), resulting in constructs Epo-3H4 (SEQ ID NO:86) and Epo-15D10 (SEQ ID NO:87). Expression of the erythropoietin gene was driven by a cytomegalovirus (CMV) promoter. The riboswitch cassette containing aptamer 6B4 was inserted at position 276 into the cDNA sequence encoding enhanced green fluorescent protein (EGFP) in vector pEGFP-C1 to generate the EGFP-6B4 construct (SEQ ID NO:88). The intron-exon-intron cassette without aptamer sequence was inserted into Con8-Epo to create construct Epo-Con1 (SEQ ID NO:89), serving as a control for constitutive target gene expression.
(§5) Enzyme-linked immunosorbent assay (ELISA) for mouse erythropoietin: AML12 cells were transfected as described in Example 1 with TransIT-X2 transfection reagent (Mirus Bio). Four hours after transfection, AML12 cells were treated with or without fursultiamine at the indicated doses. The supernatants from the transfected cells were collected 24 hours after fursultiamine treatment and were subjected to ELISA for the detection of mEpo in the supernatant following the manufacturer's instruction (R&D).

[6] = tested on: riboswitch comprising aptamer 15D10; conditions: 12.5 μM, AML12 cells
From the text: as §4, §5

[7] = tested on: riboswitch comprising aptamer 15A5; test: Luciferase reporter with 15A5 riboswitch in AML12 cells; format: cell-based, mouse; conditions: FIG. 6B
[8] = tested on: riboswitch 15D10; test: Luciferase reporter with 15D10 riboswitch (Luci-15D10) in AML12 cells; format: cell-based, mouse; conditions: for luciferase regulation in response to ligand, riboswitch 15D10: AML12 cells, FIG. 6B
[9] = tested on: riboswitch comprising aptamer 6B4
From the text: as §4

[10] = tested on: riboswitch 15D10; test: Luci-15D10 luciferase reporter in ARPE-19 cells; format: cell-based, human; conditions: FIG. 9E
[11] = tested on: riboswitch 15D10; test: Luci-15D10 luciferase reporter in Hep G2 cells; format: cell-based, human; conditions: potency compared at 12.5 μM, FIG. 9F
[12] = tested on: riboswitch 3H4; test: In vivo bioluminescence imaging, mice given AAV luci-3H4; set-up: species or system Balb/c mice
From the text: (§6) AAV2.8 viral particle production: The AAV2.8 particles used for the transfection of mice comprised a viral genome derived from AAV2 and a capsid derived from AAV8. The luciferase gene containing an intron-exon-intron cassette with (1) a non-regulatable riboswitch without aptamer (“luci-Con1”, SEQ ID NO:90), (2) a riboswitch cassette comprising aptamer 3H4 (“luci-3H4”, SEQ ID NO:91), or (3) a riboswitch cassette comprising aptamer 6B4 (“luci-6B4”, SEQ ID NO:92), respectively, was cloned into an AAV2 plasmid vector. Expression of the luciferase gene was controlled by a CASI promoter, which includes CMV and ubiquitin C enhancer elements and the chicken β-actin promoter. The viral vector was packaged into AAV8 capsid and produced following manufacture's protocol (Vigene Biosciences).
(§7) Animal study: Male Balb/c mice received a single tail vein injection of 1.0×10^11 or 2.5×10^11 genome copies of the receptive AAV2.8 viral particle. Twenty-eight days after AAV vector delivery, mice were treated intraperitoneally (IP.) with 50 mg/kg prosultiamine. Luciferase activity was measured the day prior to drug dosing, as well as 6 h, 24 h, 48 h and 72 h after drug dosing. After the first administration of prosultiamine, the mice were subjected to three additional rounds of dosing and imaging cycles as follows: Day 36 (after AAV administration):100 mg/kg; day 43: 200 mg/kg; and day 51: 400 mg/kg.
(§8) Noninvasive live animal bioluminescence imaging: Before imaging, mice were anesthetized with 2% isoflurane, and injected with 150 mg/kg body weight of luciferin. At the indicated time point post drug dosing, images were taken within 2 to 5 minutes after luciferin injection using a Bruker Xtreme system. Luciferase activity was expressed as mean photon/s±S.D. (n=5). The fold induction of luciferase gene expression was calculated as the quotient of photon/s obtained from mice treated with prosultiamine divided by the value obtained from mice the day before prosultiamine treatment.

[13] = tested on: riboswitch 6B4; test: In vivo bioluminescence imaging, mice given AAV luci-6B4; set-up: species or system Balb/c mice
From the text: as §6, §7, §8

[14] = 50 mg/kg IP single dose, six hours after dosing
[15] = 50 mg/kg and 100 mg/kg IP doses
[16] = 200 mg/kg and 400 mg/kg IP doses

Structure (SMILES) | effect on luciferase expression, riboswitch TPPm [2] | effect on luciferase expression, riboswitch TPPz [4] | luciferase regulation in response to ligand, riboswitch 15A5 [7] | luciferase regulation in response to ligand, riboswitch 15D10 [8] | activity in increasing riboswitch 15D10-regulated luciferase expression [10] | effect on luciferase expression from Luci-15D10 [1] | activity in increasing riboswitch 15D10-regulated luciferase expression [11] | further results
CC(=C(CCO)SSCC1CCCO1)N(C=O)Cc1cnc(C)nc1N (stereo in doubt) [fursultiamine] | induce luciferase expression | induce luciferase expression | robustly regulate luciferase expression | robustly regulate luciferase expression | – | – | – | fold induction at 50 µM ([1]; Homo sapiens, HEK293, 24 h, read-out: Fold increase in riboswitch 15D10-regulated luciferase expression, HEK): 446; increase in luciferase expression, 14G4 riboswitch [3]: 100 fold; induction of mEpo expression, Epo-3H4 [5]: ~9 fold; level of mEpo from mEpo-15D10 relative to constitutive mEpo-Con1 construct [6]: approximately 61.3%; induction of mEpo expression, Epo-15D10 ([6]; versus absence of fursultiamine): about 40 fold; fold induction at 50 µM ([8]; Mus musculus, AML12, 24 h, read-out: Fold increase in riboswitch 15D10-regulated luciferase expression, AML): 315; increase in EGFP expression [9]: 14 fold
COc1ccc(C(=O)S/C(CCOP(=O)(O)O)=C(/C)N(C=O)Cc2cnc(C)nc2N)cc1 [Compound M32, (Z)—S-(2-(N-((4-Amino-2-methylpyrimidin-5-yl)methyl)formamido)-5-(phosphonooxy)pent-2-en-3-yl) 4-methoxybenzothioate] | – | – | – | – | no activity | no effect on luciferase expression | no activity | –
Cc1ncc(C[n+]2csc(CCO[P@](=O)(O)OP(=O)(O)O)c2C)c(N)n1 [TPP, thiamine pyrophosphate] | regulate luciferase expression | regulate luciferase expression | respond very poorly | respond very poorly | – | – | – | –
C/C(=C(\CCOP(=O)(O)O)SC(=O)c1ccccc1)N(C=O)Cc1cnc(C)nc1N [benfotiamine, reference compound] | – | – | robustly regulate luciferase expression | robustly regulate luciferase expression | no activity | no effect on luciferase expression | no activity | –
CCCSS/C(CCO)=C(/C)N(C=O)Cc1cnc(C)nc1N [prosultiamine] | induce luciferase expression | induce luciferase expression | robustly regulate luciferase expression | robustly regulate luciferase expression | – | – | – | luciferase activity in mice, riboswitch 3H4 [12, 14]: significantly increased; time at which induced luciferase activity attenuated to pre-treatment level [12, 15]: 24 h; time induced luciferase activity remained [12, 16]: ≥ 48 h; luciferase activity in mice, riboswitch 6B4 [13, 14]: significantly increased; time at which induced luciferase activity attenuated to pre-treatment level [13, 15]: 24 h; time induced luciferase activity remained [13, 16]: ≥ 48 h
